# Assay results reported in paper PMC3584069, “The Interaction of the Chemotherapeutic Drug Chlorambucil with Human Glutathione Transferase A1-1: Kinetic and Structural Analysis” (PLoS ONE, 2013).
# T1: human glutathione transferase A1-1 (hGSTA1-1) (Homo sapiens, UniProt P08263)
# T1 construct: gene GSTA1; recombinant purified hGSTA1-1 homodimer
# T1 sequence (P08263 2-222): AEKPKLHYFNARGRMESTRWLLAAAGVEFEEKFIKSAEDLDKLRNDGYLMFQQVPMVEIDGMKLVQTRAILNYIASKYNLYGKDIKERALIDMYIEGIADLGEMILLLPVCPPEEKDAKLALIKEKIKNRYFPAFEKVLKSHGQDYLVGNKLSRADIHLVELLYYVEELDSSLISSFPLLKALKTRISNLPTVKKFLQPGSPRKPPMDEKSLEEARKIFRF
# B1: human glutathione transferase A1-1 (enzyme)
# chain: KPKLHYFNARGRMESTRWLLAAAGVEFEEKFIKSAEDLDKLRNDGYLMFQQVPMVEIDGMKLVQTRAILNYIASKYNLYGKDIKERALIDMYIEGIADLGEMILLLPVCPPEEKDAKLALIKEKIKNRYFPAFEKVLKSHGQDYLVGNKLSRADIHLVELLYYVEELDSSLISSFPLLKALKTRISNLPTVKKFLQPGSPRKPPMDEKSLEEARKIF
# notes: glutathione transferase A1 subunit, human; the crystal model holds residues 4-220 (monomer A) and 3-221 (monomer B, without 112-115); Homodimer; MALDI-TOF of the unmodified subunit: m/z 25,482; also called hGSTA1-1; GSTA1-1; source: recombinant
# Tests used:
# [1] = target: T1, human glutathione transferase A1-1 (hGSTA1-1); assay: X-ray crystal structure (GSH moiety of the GSH–CBL adduct); initial velocity kinetics with GSH as variable substrate; assay type: binding
# [2] = target: T1, human glutathione transferase A1-1 (hGSTA1-1); assay: irreversible enzyme inactivation kinetics in absence of GSH (apparent KD, fast phase), MALDI-TOF MS of CBL-modified subunit, DTNB cysteine titration; also a substrate in presence of GSH; assay type: biochemical; conditions: read-out: Kd
# [3] = target: the molecule itself; assay: crystal structure; hGSTA1-1 (19.7 mg/mL) incubated with CBL at 1:3 molar ratio; 17-20% PEG 2000, 0.1 M Tris-HCl pH 7.5, 0.1 mM beta-mercaptoethanol, vapor diffusion at 20°C; 2.1 Å; monomers A and B in the model
molecule,measurement,setting,value
N[C@@H](CCC(=O)N[C@@H](CS)C(=O)NCC(=O)O)C(=O)O [GSH],X-ray crystal structure (GSH moiety of the GSH-CBL adduct); initial velocity kin,[1],Difference Fourier electron density maps indicate the presence of a GSH moiety in the G-site of the enzyme
O=C(O)CCCc1ccc(N(CCCl)CCCl)cc1 [chlorambucil],KI (inactivation),[2],2.95 ± 0.5 mM
B1,binding result,[3],binds
